What was measured:
[1] = system: carrageenin-induced rat foot edema; assay: carrageenin-induced rat foot edema test; format: in vivo; details: for % Inhibition at 32 mg./kg. (inhibition of edema formation): rats, 32 mg./kg. orally (by gavage), compared to vehicle control
Source text: (§1) Such conditions include gastrointestinal disorders such as ulcer and colitis and other like diseases of the gastrointestinal tract, central nervous system disorders such as anxiety and psychosis, inflammatory diseases such as rheumatoid arthritis and inflammatory bowel diseases, respiratory diseases such as asthma, as well as pain in any of the aforesaid conditions, including migraine. […] A. Winter et al., Proceedings of the Society of Experimental Biology and Medicine, Vol. 111, p.
In this test, anti-inflammatory activity is determined as the percent inhibition of edema formation in the hind par of male albino rats (weighing 150-190 g.) in response to a sub-plantar injection of carrageenin. The carrageenin is injected as a 1% aqueous solution. Edema formation is then assessed by measuring the volume of the injected paw initially as well as three hours after the carrageenin injection. The increase in volume three hours after carrageenin injection constitutes the individual response. Compounds are considered active if the difference in response between the drug-treated animals (six rats/group) and a control group receiving the vehicle alone is significant on comparison with the results afforded by a standard compound like phenylbutazone at 33 mg./kg., via the oral route of administration.
The following cis-[(cyclic)methylamino]-2-benzhydrylquinuclidine final products of Examples 2, 3 and 4, respectively, were tested for anti-inflammatory activity in rats, using the standard rat foot edema test, according to the general procedure described by C. A. Winter et al., as first reported in the Proceedings of the Society for Experimental Biology and Medicine, Vol. 111, p. 544 (1962).

[2] = system: substance P-induced locomotion; assay: suppression of substance P-induced hypermotility (locomotion) in rats; format: in vivo, rat; details: 32 mg./kg. dose level, intraperitoneal route
Source text: as §1
The anti-psychotic activity of the compounds of the present invention as neuroleptic agents for the control of various psychotic disorders is determined primarily by a study of their ability to suppress substance P-induced hypermotility in rats. This study is carried out by first dosing the rats with a control compound or with an appropriate test compound of the present invention, then injecting the rats with substance P by intracerebral administration via canula and thereafter measuring their individual locomotor response to said stimuli.

| Structure (SMILES) | % Inhibition at 32 mg./kg. (inhibition of edema formation) [1] | inhibition of substance P-induced locomotion [2] | inhibition in swelling ([1]; rat, 100 mg./kg. dose level, oral route) |
| --- | --- | --- | --- |
| COc1ccccc1CN[C@H]1C2CCN(CC2)[C@H]1C(c1ccccc1)c1ccccc1 (relative stereo) [Example 4, cis-3-[(2-methoxyphenyl)methylamino]-2-benzhydrylquinuclidine] | 38% | – | – |
| Clc1ccccc1CN[C@H]1C2CCN(CC2)[C@H]1C(c1ccccc1)c1ccccc1 (relative stereo) [Example 2, cis-3-[(2-chlorophenyl)methylamino]-2-benzhydrylquinuclidine] | 29% | 50% | 50% |
| FC(F)(F)c1ccccc1CN[C@H]1C2CCN(CC2)[C@H]1C(c1ccccc1)c1ccccc1 (relative stereo) [Example 3, cis-3-[(2-trifluorophenyl)methylamino]-2-benzhydrylquinuclidine] | 50% | – | – |

Reference: patent US5162339A, “Quinuclidine therapeutic agents” (Pfizer Inc., priority 1990, dated 1992)
